In US10093630B2, “Pyrazole compounds and methods of making and using same” (ABIDE THERAPEUTICS, INC., priority 2014, dated 2018):

What was measured:
Assay in all cases: In vitro competitive activity-based protein profiling (gel-based, FP-Rh or HT-01 probe)
Type in all cases: biochemical
[1] = biological target: T1, MAGL (Mus musculus, UniProt O35678); details: for inhibition at 1 µM: 1 μM inhibitor; for inhibition at 10 µM: 10 μM inhibitor; for IC50: mouse brain membrane fraction or cell lysates, 30 min preincubation at 37° C., read-out: Mouse (IC50 value, nM) MAGL
T1 construct: Proteomes (mouse brain membrane fraction or cell lysates); from tissue; host or cells: mouse brain membrane fraction (or cell lysates, not specified)
T1 sequence (O35678 1-303): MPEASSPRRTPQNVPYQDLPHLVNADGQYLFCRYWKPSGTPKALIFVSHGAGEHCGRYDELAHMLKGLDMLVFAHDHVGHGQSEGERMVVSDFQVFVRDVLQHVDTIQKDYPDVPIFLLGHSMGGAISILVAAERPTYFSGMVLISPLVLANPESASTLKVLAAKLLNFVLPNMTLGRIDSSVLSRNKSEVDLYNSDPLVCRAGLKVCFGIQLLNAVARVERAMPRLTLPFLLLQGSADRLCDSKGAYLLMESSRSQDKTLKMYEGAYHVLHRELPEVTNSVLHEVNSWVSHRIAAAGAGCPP
Method in brief: (§1)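 Mouse brain membrane proteome or cell lysate (1.0 mg/mL protein) was preincubated with inhibitor at varying concentrations for 30 min at 37° C, then labelled with FP-Rh or HT-01 for 30 min at 37° C. After SDS-PAGE, residual hydrolase activity was quantified as in-gel fluorescence of each band.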

[2] = biological target: T2, PLA2G7 (Mus musculus, UniProt Q60963); details: for inhibition at 1 µM: 1 μM inhibitor, read-out: % Inhibition at 1 μM, D = PLA2G7; for inhibition at 10 µM: 10 μM inhibitor, read-out: % Inhibition at 10 μM, D = PLA2G7; for IC50: mouse brain membrane fraction or cell lysates, 30 min preincubation at 37° C.
T2 construct: Proteomes (mouse brain membrane fraction or cell lysates); from tissue; host or cells: mouse brain membrane fraction (or cell lysates, not specified)
T2 sequence (Q60963 22-440): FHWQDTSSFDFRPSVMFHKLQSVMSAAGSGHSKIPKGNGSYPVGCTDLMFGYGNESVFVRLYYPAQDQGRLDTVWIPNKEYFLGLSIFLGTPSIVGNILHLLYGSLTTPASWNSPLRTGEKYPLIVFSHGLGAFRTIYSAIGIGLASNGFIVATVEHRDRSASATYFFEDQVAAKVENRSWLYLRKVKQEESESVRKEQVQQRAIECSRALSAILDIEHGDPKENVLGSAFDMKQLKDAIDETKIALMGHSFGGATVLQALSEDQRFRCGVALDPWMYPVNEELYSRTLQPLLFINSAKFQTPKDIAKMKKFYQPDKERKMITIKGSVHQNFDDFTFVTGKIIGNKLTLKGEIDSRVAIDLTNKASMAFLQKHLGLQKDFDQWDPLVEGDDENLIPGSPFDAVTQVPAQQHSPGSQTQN
Method in brief: as §1

[3] = biological target: T3, ABHD6 (Mus musculus, UniProt Q8R2Y0); details: for inhibition at 1 µM: 1 μM inhibitor, read-out: % Inhibition at 1 μM, C = ABHD6; for inhibition at 10 µM: 10 μM inhibitor, read-out: % Inhibition at 10 μM, C = ABHD6; for IC50: mouse brain membrane fraction or cell lysates, 30 min preincubation at 37° C., read-out: Mouse (IC50 value, nM) ABHD6
T3 construct: Proteomes (mouse brain membrane fraction or cell lysates); from tissue; host or cells: mouse brain membrane fraction (or cell lysates, not specified)
T3 sequence (Q8R2Y0 1-336): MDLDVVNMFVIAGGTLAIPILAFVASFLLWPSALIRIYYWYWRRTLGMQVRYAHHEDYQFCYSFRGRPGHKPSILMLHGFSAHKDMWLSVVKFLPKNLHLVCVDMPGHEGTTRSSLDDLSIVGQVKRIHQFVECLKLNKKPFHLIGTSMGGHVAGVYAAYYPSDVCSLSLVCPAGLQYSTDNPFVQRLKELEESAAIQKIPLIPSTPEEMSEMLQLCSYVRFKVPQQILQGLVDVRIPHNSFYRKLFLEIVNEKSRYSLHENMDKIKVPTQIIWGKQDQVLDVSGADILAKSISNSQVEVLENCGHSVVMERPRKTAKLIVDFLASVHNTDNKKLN
Method in brief: as §1

[4] = biological target: T4, FAAH (Mus musculus, UniProt O08914); details: for inhibition at 1 µM: 1 μM inhibitor, read-out: % Inhibition at 1 μM, B = FAAH; for inhibition at 10 µM: 10 μM inhibitor, read-out: % Inhibition at 10 μM, B = FAAH; for IC50: mouse brain membrane fraction or cell lysates, 30 min preincubation at 37° C., read-out: Mouse (IC50 value, nM) FAAH
T4 construct: Proteomes (mouse brain membrane fraction or cell lysates); from tissue; host or cells: mouse brain membrane fraction (or cell lysates, not specified)
T4 sequence (O08914 1-579): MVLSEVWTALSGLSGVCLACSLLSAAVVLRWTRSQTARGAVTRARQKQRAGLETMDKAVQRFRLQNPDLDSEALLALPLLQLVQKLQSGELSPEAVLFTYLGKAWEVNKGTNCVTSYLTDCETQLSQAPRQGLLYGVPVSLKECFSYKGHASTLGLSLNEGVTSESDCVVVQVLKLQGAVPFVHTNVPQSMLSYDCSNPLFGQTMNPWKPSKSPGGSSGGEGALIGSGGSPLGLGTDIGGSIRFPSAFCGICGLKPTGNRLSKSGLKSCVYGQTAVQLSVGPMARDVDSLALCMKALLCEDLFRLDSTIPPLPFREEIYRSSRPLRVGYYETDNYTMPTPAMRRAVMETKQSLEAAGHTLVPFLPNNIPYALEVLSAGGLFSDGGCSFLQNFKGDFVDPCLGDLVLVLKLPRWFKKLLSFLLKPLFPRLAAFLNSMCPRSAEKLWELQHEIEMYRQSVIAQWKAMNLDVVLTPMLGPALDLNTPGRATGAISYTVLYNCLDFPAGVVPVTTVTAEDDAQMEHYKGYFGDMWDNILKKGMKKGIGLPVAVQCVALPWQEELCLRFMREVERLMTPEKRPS
Method in brief: as §1

Compound	inhibition at 1 µM [1] [%]	inhibition at 10 µM [1] [%]	inhibition at 1 µM [2] [%]	inhibition at 10 µM [2] [%]	inhibition at 1 µM [3] [%]	inhibition at 10 µM [3] [%]	inhibition at 1 µM [4] [%]	inhibition at 10 µM [4] [%]	IC50 [1] [nM]	IC50 [2] [nM]	IC50 [3] [nM]	IC50 [4] [nM]
O=C(N1CCN(Cc2ccccc2)CC1)n1cc(C(F)(F)F)cn1 [Example 152, (4-Benzylpiperazin-1-yl)(4-(trifluoromethyl)-1H-pyrazol-1-yl)methanone]	> 75	> 75	> 75	> 75	> 75	> 75	> 75	> 75	–	–	–	–
O=C(c1ccccc1)N1CCN(C(=O)n2cc(C(F)(F)F)cn2)CC1 [Example 153, (4-Benzoylpiperazin-1-yl)(4-(trifluoromethyl)-1H-pyrazol-1-yl)methanone]	> 75	> 75	> 75	> 75	< 25	> 75	< 25	25 to 75	–	–	–	–
CC(=O)N1CCCN(C(=O)n2cc(C(F)(F)F)cn2)CC1 [Example 154, 1-(4-(4-(trifluoromethyl)-1H-pyrazole-1-carbonyl)-1,4-diazepan-1-yl)ethanone]	< 25	< 25	25 to 75	> 75	< 25	> 75	< 25	25 to 75	–	–	–	–
CS(=O)(=O)N1CCCN(C(=O)n2cc(C(F)(F)F)cn2)CC1 [Example 155, (4-(Methylsulfonyl)-1,4-diazepan-1-yl)(4-(trifluoromethyl)-1H-pyrazol-1-yl)methanone]	< 25	25 to 75	> 75	> 75	< 25	> 75	25 to 75	> 75	–	–	–	–
CN1CCCN(C(=O)n2cc(C(F)(F)F)cn2)CC1 [Example 156, (4-Methyl-1,4-diazepan-1-yl)(4-(trifluoromethyl)-1H-pyrazol-1-yl)methanone]	< 25	< 25	< 25	> 75	< 25	< 25	< 25	25 to 75	–	–	–	–
O=C(N1CCCN(Cc2ccccc2)CC1)n1cc(C(F)(F)F)cn1 [Example 157, (4-Benzyl-1,4-diazepan-1-yl)(4-(trifluoromethyl)-1H-pyrazol-1-yl)methanone]	> 75	> 75	< 25	> 75	> 75	> 75	> 75	> 75	> 1000	> 1000	> 1000	100 to 1000
O=C(c1ccccc1)N1CCCN(C(=O)n2cc(C(F)(F)F)cn2)CC1 [Example 158, (4-Benzoyl-1,4-diazepan-1-yl)(4-(trifluoromethyl)-1H-pyrazol-1-yl)methanone]	> 75	> 75	> 75	> 75	> 75	> 75	> 75	> 75	> 1000	> 1000	> 1000	> 1000

Second part, the compound after the results:

inhibition at 1 µM [1] [%]	inhibition at 10 µM [1] [%]	inhibition at 1 µM [2] [%]	inhibition at 10 µM [2] [%]	inhibition at 1 µM [3] [%]	inhibition at 10 µM [3] [%]	inhibition at 1 µM [4] [%]	inhibition at 10 µM [4] [%]	IC50 [1] [nM]	IC50 [2] [nM]	IC50 [3] [nM]	IC50 [4] [nM]	Compound
< 25	< 25	< 25	> 75	< 25	> 75	< 25	25 to 75	–	–	–	–	CC(=O)N(C)CCN(C)C(=O)n1cc(C(F)(F)F)cn1 [Example 159, N-Methyl-N-(2-(N-methylacetamido)ethyl)-4-(trifluoromethyl)-1H-pyrazole-1-carboxamide]
< 25	> 75	> 75	> 75	< 25	> 75	> 75	> 75	–	–	–	–	CN(CCN(C)C(=O)n1cc(C(F)(F)F)cn1)C(=O)c1ccccc1 [Example 160, N-methyl-N-(2-(N-methylbenzamido)ethyl)-4-(trifluoromethyl)-1H-pyrazole-1-carboxamide]
< 25	< 25	< 25	> 75	< 25	< 25	< 25	< 25	–	–	–	–	CC(=O)N1CCN(C(=O)n2cc(C)cn2)CC1 [Example 161, 1-(4-(4-Methyl-1H-pyrazole-1-carbonyl)piperazin-1-yl)ethanone]
< 25	< 25	< 25	> 75	< 25	25 to 75	< 25	< 25	–	–	–	–	Cc1cnn(C(=O)N2CCN(S(C)(=O)=O)CC2)c1 [Example 162, (4-Methyl-1H-pyrazol-1-yl)(4-(methylsulfonyl)piperazin-1-yl)methanone]
< 25	< 25	< 25	< 25	< 25	25 to 75	< 25	< 25	–	–	–	–	Cc1cnn(C(=O)N2CCN(C)CC2)c1 [Example 163, (4-Methyl-1H-pyrazol-1-yl)(4-methylpiperazin-1-yl)methanone]
< 25	25 to 75	< 25	> 75	< 25	< 25	< 25	< 25	–	–	–	–	Cc1cnn(C(=O)N2CCN(C(=O)c3ccccc3)CC2)c1 [Example 164, (4-Benzoylpiperazin-1-yl)(4-methyl-1H-pyrazol-1-yl)methanone]
–	< 25	–	< 25	–	< 25	–	25 to 75	–	–	–	–	CC(=O)N1CCCN(C(=O)n2cc(C)cn2)CC1 [Example 165, 1-(4-(4-Methyl-1H-pyrazole-1-carbonyl)-1,4-diazepan-1-yl)ethanone]
–	< 25	–	< 25	–	< 25	–	< 25	–	–	–	–	Cc1cnn(C(=O)N2CCCN(S(C)(=O)=O)CC2)c1 [Example 166, (4-Methyl-1H-pyrazol-1-yl)(4-(methylsulfonyl)-1,4-diazepan-1-yl)methanone]
